Several values for one entry are separate records, joined by “and”; a condition that tells them apart may be missing. Identical values can stand only once.
Columns and labels:
Format in all cases: cell-based
[1] = system: B. subtilis var. niger spores; test: Decontamination of a mock BSC containing spore test strips with chlorine dioxide gas; strips cultured in tryptic soy broth
Excerpt: Test strips contaminated with 2.4×10^4 B. subtilis var. niger spores (Castle Biospore Biological Indicators, Castle, Inc., Rochester, N.Y.) were placed inside a mock BSC (FIG. 7) in various positions. The mock BSC was generated such that it was sealed from the outside environment, and included two openings to permit influx and efflux of air and other agents through the mock BSC.
After sealing the mock BSC, the sealed mock BSC was humidified to 74-95% relative humidity using the following methods. Referring to FIGS. 2, 3 and 7, water was added to a humidifier/scrubber 22, and a blower 24 attached to the humidifier/scrubber 22 to allow air to pass by the water to generate humidified air. A hose 30 coming from the humidifier/scrubber which emitted humidified air was introduced into one of the openings 402 in the mock BSC 400. A hose 36 coming out of the mock BSC was attached to the blower 22, thereby providing a closed-loop which circulated humidified air from the humidifier/scrubber 22 into the mock BSC 400, out of the mock BSC 400 and back to the humidifier/scrubber 22, and so on. A hygrometer 404 in the mock BSC was used to monitor the relative humidity in the mock BSC.
During the humidification, chlorine dioxide gas was introduced into the mock BSC as follows. A tank 12 containing a 4% chlorine/96% nitrogen gas mixture was turned on to permit the flow of gas to a CDG Saf-T-Chlor™ chlorine dioxide gas generator 14. This generator includes a sodium chlorite cartridge in fluid communication with the 4% Cl/96% N2 gas mixture. The resulting chlorine dioxide gas was allowed to flow into the hose 30 exiting the humidifier/scrubber (containing the humidified air), and was allowed to enter the mock BSC along with the humidified air. A chlorine dioxide monitor in the mock BSC allowed for a determination of the amount of chloride dioxide in the mock BSC. In some instances, the air circulation was increased by including a fan 406 in the mock BSC.
Following exposure to chlorine dioxide, the tank 12 containing a 4% Cl/96% N2 gas mixture was turned off, to stop the flow and production of chlorine dioxide gas. To neutralize the chlorine dioxide gas, the following methods were used. A neutralizing solution that included 10% NaOH and 10% sodium thiosulfate hydrate (in water) was introduced into the humidifier/scrubber 22. Air from the mock BSC containing chlorine dioxide gas was circulated through the closed system described above, such that when the air containing chloride dioxide gas passed through the humidifier/scrubber 22, it was at least partially neutralized. […]

[2] = system: B. subtilis var. niger spores; test: Decontamination of a BSC containing spore test strips using 4000 ppm ClO2 for 60 min; conditions: 75% relative humidity
Excerpt: (§1) Test strips described in Example 1 were placed inside a BSC (FIG. 8) in various positions. Referring to FIGS. 2, 3 and 8, the opening in the front of the BSC 500 was sealed using a polyethylene sheet 502 or plastic sheeting and duct tape. An opening 504 was made in the plastic or polyethylene 502 to permit influx of air and other agents through the sealed BSC 500. Gas was evacuated from the sealed BSC using the port 506 on the top of the sealed BSC through fluid flow path 36.
After sealing the BSC, the sealed area was humidified to 75% relative humidity as described in Example 1. Briefly, water was added to a humidifier/scrubber 22, and a blower 24 attached to the humidifier/scrubber 22 to allow air to pass by the water to generate humidified air. A hose 30 coming from the humidifier/scrubber which emitted humidified air was introduced into an opening 504 in the sealed BSC 500. A hose 36 coming out of the BSC was attached to the blower 22, thereby providing a closed-loop which circulated humidified air from the humidifier/scrubber 22 into the sealed BSC 500, out of the sealed BSC 500 and back to the humidifier/scrubber 22, and so on.
During the humidification, chlorine dioxide gas was introduced into the BSC as described in Example 1. The BSC was exposed to 4000 ppm chlorine dioxide gas for one hour. […]

[3] = system: B. subtilis var. niger spores; test: Decontamination of a BSC containing spore test strips using 2500 ppm ClO2 for 60 min; conditions: 70-80% relative humidity
Excerpt: as §1
After sealing the BSC, the sealed area was humidified to 70-80% relative humidity as described in Examples 1 and 2. During the humidification, chlorine dioxide gas was introduced into the BSC as described in Example 1. The BSC was exposed to 2500 ppm chlorine dioxide gas for one hour. The BSC circulates 15 s/5 min.
Once the hour was up, the chlorine dioxide gas was neutralized as described above. The test strips were cultured as described in Example 1.

With `[O][Cl+][O-]` [ClO2, Chlorine dioxide] the “Kill (number of test strips negative for spore growth)” value ([1]; Run A: 1500 ppm ClO2, exposure 90 min, relative humidity 95%, 69 °F, strips with 2.4×10^4 spores) was 16/16, the “Kill (number of test strips negative for spore growth)” value ([1]; Run B: 1500 ppm ClO2, exposure 90 min, relative humidity 85%, 69 °F) was 16/16 and the “Kill (number of test strips negative for spore growth)” value ([1]; Run C: 2200 ppm ClO2, exposure 60 min, relative humidity 74%, 69 °F) was 17/17. The “Kill (number of test strips negative for spore growth)” value ([1]; Run D: 2000 ppm ClO2, exposure 60 min, relative humidity 75%, 68 °F) was 17/17, the “Kill (number of test strips negative for spore growth)” value ([2]; 4000 ppm ClO2 for 60 min, Runs A-E (76.0-86.0 °F)) was 24/24 and 23/24 and the “spore kill on test strips (in words)” value ([2]; 4000 ppm chlorine dioxide gas for one hour) was “all spores were killed except on one test strip”. The “Kill (number of test strips negative for spore growth)” value ([3]; 2500 ppm ClO2 for 60 min, Runs A-D (70-74 °F)) was 24/24 and 23/23 and the “spore kill on test strips (in words)” value ([3]; 2500 ppm chlorine dioxide gas for one hour) was “all spores were killed”.
